# What was measured:
# Assay type in all cases: in vivo
# [1] = tested on: Leptosphaeria nodorum; assay: Leptosphaeria nodorum test (wheat)/preventive; settings: Table C1, 8 days after inoculation
# Method: Solvent: 49 parts by weight of N,N-dimethylacetamide Emulsifier: 1 part by weight of alkylaryl polyglycol ether To produce a suitable preparation of active compound, 1 part by weight of active compound or active compound combination is mixed with the stated amounts of solvent and emulsifier, and the concentrate is diluted with water to the desired concentration. To test for preventive activity, young plants are sprayed with the preparation of active compound or active compound combination at the stated rate of application. After the spray coating has been dried, the plants are sprayed with a spore suspension of Leptosphaeria nodorum.
# [2] = tested on: Phakopsora pachyrhizi; assay: Phakopsora test (soybeans)/preventive; settings: 7 days after inoculation
# [3] = tested on: Pyrenophora teres; assay: Pyrenophora teres-test (barley)/preventive; settings: Table F1, 8 days after inoculation
# Method: (§1) Solvent: 49 parts by weight of N,N-dimethylacetamide
# (§2) Emulsifier: 1 part by weight of alkylaryl polyglycol ether
# (§3) To produce a suitable preparation of active compound, 1 part by weight of active compound or active compound combination is mixed with the stated amounts of solvent and emulsifier, and the concentrate is diluted with water to the desired concentration.
# (§4) To test for preventive activity, young plants are sprayed with the preparation of active compound or active compound combination at the stated rate of application.
# After the spray coating has been dried, the plants are sprayed with a spore suspension of Pyrenophora teres. The plants remain for 48 hours in an incubation cabinet at approximately 20° C. and a relative atmospheric humidity of approximately 100%.
# (§5) The plants are placed in the greenhouse at a temperature of approximately 20° C. and a relative atmospheric humidity of approximately 80%.
# (§6) The test is evaluated 8 days after the inoculation. 0% means an efficacy which corresponds to that of the untreated control, while an efficacy of 100% means that no disease is observed.
# [4] = tested on: Uromyces appendiculatus; assay: Uromyces test (beans)/preventive; settings: 10 days after inoculation
# Method: (§7) Solvent: 24.5 parts by weight of acetone • 24.5 parts by weight of dimethylacetamide
# as §2
# (§8) To produce a suitable preparation of active compound, 1 part by weight of active compound is mixed with the stated amounts of solvent and emulsifier, and the concentrate is diluted with water to the desired concentration.
# (§9) To test for preventive activity, young plants are sprayed with the preparation of active compound at the stated rate of application. After the spray coating has dried on, the plants are inoculated with an aqueous spore suspension of the causal agent of bean rust (Uromyces appendiculatus) and then remain for 1 day in an incubation cabinet at approximately 20° C. and a relative atmospheric humidity of 100%.
# The plants are then placed in a greenhouse at approximately 21° C. and a relative atmospheric humidity of approximately 90%.
# The test is evaluated 10 days after the inoculation. 0% means an efficacy which corresponds to that of the untreated control, while an efficacy of 100% means that no disease is observed.
# [5] = tested on: Venturia inaequalis; assay: Venturia test (apples)/preventive; settings: Table I1, 10 days after inoculation
# Method: (§10) Solvent: 24.5 parts by weight of acetone • 24.5 parts by weight of dimethylacetamide Emulsifier: 1 part by weight of alkylaryl polyglycol ether To produce a suitable preparation of active compound, 1 part by weight of active compound is mixed with the stated amounts of solvent and emulsifier, and the concentrate is diluted with water to the desired concentration. To test for preventive activity, young plants are sprayed with the preparation of active compound at the stated rate of application.
# [6] = tested on: Puccinia triticina; assay: Puccinia triticina-test (wheat)/preventive; settings: Table E1, 8 days after inoculation
# Method: as §1, §2, §3, §4
# After the spray coating has been dried, the plants are sprayed with a spore suspension of Puccinia triticina. The plants remain for 48 hours in an incubation cabinet at approximately 20° C. and a relative atmospheric humidity of approximately 100%.
# as §5, §6
# [7] = tested on: Sphaerotheca fuliginea; assay: Sphaerotheca test (cucumbers)/preventive; settings: Table G1, 7 days after inoculation
# Method: as §10, with “application. After the spray coating has dried on, the plants are inoculated with an aqueous spore suspension of Sphaerotheca fuliginea.” for “application.”
# [8] = tested on: Alternaria solani; assay: Alternaria test (tomatoes)/preventive; settings: 3 days after inoculation
# Method: as §7, §2, §8
# as §9, with “Alternaria solani. The plants are” for “the causal agent of bean rust (Uromyces appendiculatus) and”, “placed” for “remain for 1 day”
# The test is evaluated 3 days after the inoculation. 0% means an efficacy which corresponds to that of the untreated control while an efficacy of 100% means that no disease is observed.
# [9] = tested on: Blumeria graminis f.sp. hordei; assay: Blumeria test (barley)/preventive; settings: Table B1, 7 days after inoculation
# Method: Solvent: 49 parts by weight of N,N-dimethylacetamide Emulsifier: 1 part by weight of alkylaryl polyglycol ether To produce a suitable preparation of active compound, 1 part by weight of active compound or active compound combination is mixed with the stated amounts of solvent and emulsifier, and the concentrate is diluted with water to the desired concentration. To test for preventive activity, young plants are sprayed with the preparation of active compound or active compound combination at the stated rate of application. After the spray coating has been dried, the plants are dusted with spores of Blumeria graminis f.sp. hordei.
# [10] = Phakopsora pachyrhizi, 168 h, Table D1, 1 ppm a.i., read-out: Efficacy in % found
molecule,measurement,setting,value
"Fc1ccc([C@]2(Cn3cncn3)O[C@H]2c2ccccc2Cl)cc1 (racemic) [1.12, epoxiconazole]",Efficacy in % found,[1]; 40 ppm a.i.,33%
same,Efficacy in % found,"[2]; Table D2, 0.5 ppm a.i.",23%
"Cn1cc(C(=O)Nc2cccc3c2[C@@H]2CC[C@H]3C2=C(Cl)Cl)c(C(F)F)n1 (racemic) [2.29, benzovindiflupyr]",Efficacy in % found,"[2]; Table D1, 0.5 ppm a.i.",8%
same,Efficacy in % found,[3]; 40 ppm a.i.,0%
"CC(C1CC1)C(O)(Cn1cncn1)c1ccc(Cl)cc1 (stereo not drawn) [1.5, cyproconazole]",pest or weed control at 1 ppm,[2]; [10],63%
same,Efficacy in % found,"[4]; Table H3, 1 ppm a.i.",57%
same,Efficacy in % found,[5]; 2 ppm a.i.,40%
"CC1(C)CCC(Cc2ccc(Cl)cc2)C1(O)Cn1cncn1 (stereo not drawn) [1.30, metconazole]",Efficacy in % found,[6]; 40 ppm a.i.,70%
"OC(Cc1ccccc1Cl)(Cn1nc[nH]c1=S)C1(Cl)CC1 (stereo not drawn) [1.41, prothioconazole]",pest or weed control at 0.5 ppm,"[2]; Phakopsora pachyrhizi, 168 h, Table D2, 0.5 ppm a.i., read-out: Efficacy in % found",20%
same,Efficacy in % found,[6]; 80 ppm a.i.,20%
"CC(C)(C)C(O)(CCc1ccc(Cl)cc1)Cn1cncn1 (stereo not drawn) [1.47, tebuconazole]",pest or weed control at 1 ppm,[2]; [10],58%
same,Efficacy in % found,[7]; 2.5 ppm a.i.,38%
same,Efficacy in % found,"[4]; Table H2, 2 ppm a.i.",30%
"Cn1cc(C(=O)Nc2ccc(F)cc2-c2ccc(Cl)c(Cl)c2)c(C(F)F)n1 [2.1, bixafen]",Efficacy in % found,"[8]; Table A1, 0.5 ppm a.i.",43%
same,Efficacy in % found,"[2]; Table D1, 1 ppm a.i.",0%
same,Efficacy in % found,[3]; 80 ppm a.i.,94%
same,Efficacy in % found,[5]; 0.5 ppm a.i.,0%
"O=C(NCCc1ncc(C(F)(F)F)cc1Cl)c1ccccc1C(F)(F)F [2.6, fluopyram]",pest or weed control at 4 ppm,"[2]; Phakopsora pachyrhizi, 168 h, Table D1, 4 ppm a.i., read-out: Efficacy in % found",0%
same,Efficacy in % found,[3]; 40 ppm a.i.,94%
"Cn1cc(C(=O)Nc2ccccc2-c2cc(F)c(F)c(F)c2)c(C(F)F)n1 [2.8, fluxapyroxad]",Efficacy in % found,"[2]; Table D1, 1 ppm a.i.",0%
same,Efficacy in % found,[3]; 40 ppm a.i.,94%
same,Efficacy in % found,"[4]; Table H1, 0.25 ppm a.i.",0%
"CC(C)CC(C)c1sccc1NC(=O)c1cn(C)nc1C(F)(F)F (stereo not drawn) [2.21, penthiopyrad]",Efficacy in % found,[9]; 80 ppm a.i.,30%
same,Efficacy in % found,[3]; 80 ppm a.i.,63%
"CC1CC(C)(C)c2cccc(NC(=O)c3cn(C)nc3C(F)F)c21 (stereo not drawn) [2.32, 3-(difluoromethyl)-1-methyl-N-(1,1,3-trimethyl-2,3-dihydro-1H-inden-4-yl)-1H-pyrazole-4-carboxamide]",Efficacy in % found,[9]; 80 ppm a.i.,30%
"CO/C=C(/C(=O)OC)c1ccccc1Oc1cc(Oc2ccccc2C#N)ncn1 [3.3, azoxystrobin]",Efficacy in % found,[9]; 20 ppm a.i.,10%
same,Efficacy in % found,"[2]; Table D1, 0.25 ppm a.i.",15%
same,Efficacy in % found,[3]; 20 ppm a.i.,75%
same,Efficacy in % found,"[4]; Table H3, 0.125 ppm a.i.",0%
same,Efficacy in % found,[5]; 0.5 ppm a.i.,88%
"CO/N=C(/C1=NOCCO1)c1ccccc1Oc1ncnc(Oc2ccccc2Cl)c1F [3.12, fluoxastrobin]",Efficacy in % found,[3]; 20 ppm a.i.,13%
"CO/C=C(/C(=O)OC)c1ccccc1COc1cccc(C(F)(F)F)n1 [3.16, picoxystrobin]",Efficacy in % found,[9]; 40 ppm a.i.,30%
same,Efficacy in % found,[3]; 40 ppm a.i.,75%
same,Efficacy in % found,"[4]; Table H1, 2.5 ppm a.i.",65%
"COC(=O)N(OC)c1ccccc1COc1ccn(-c2ccc(Cl)cc2)n1 [3.17, pyraclostrobin]",Efficacy in % found,[6]; 20 ppm a.i.,20%
"CON=C(C(=O)OC)c1ccccc1CON=C(C)c1cccc(C(F)(F)F)c1 [3.22, trifloxystrobin]",Efficacy in % found,[6]; 20 ppm a.i.,60%
same,Efficacy in % found,[5]; 0.5 ppm a.i.,86%
"N#Cc1c(Cl)c(Cl)c(Cl)c(C#N)c1Cl [5.4, chlorothalonil]",Efficacy in % found,"[8]; Table A2, 20 ppm a.i.",8%
same,Efficacy in % found,[6]; 160 ppm a.i.,20%
same,Efficacy in % found,[7]; 5 ppm a.i.,19%
same,Efficacy in % found,"[4]; Table H2, 20 ppm a.i.",0%
same,Efficacy in % found,[5]; 20 ppm a.i.,68%
"Cn1c(=O)c2sc3c(=O)n(C)c(=O)c3sc2c1=O [15.61, 2,6-dimethyl-1H,5H-[1,4]dithiino[2,3-c:5,6-c′]dipyrrole-1,3,5,7(2H,6H)-tetrone]",Efficacy in % found,"[8]; Table A2, 50 ppm a.i.",23%
same,Efficacy in % found,[6]; 800 ppm a.i.,40%
same,Efficacy in % found,[7]; 25 ppm a.i.,38%
"CC(C)c1ccc(Cl)cc1CN(C(=O)c1c(C(F)F)nn(C)c1F)C1CC1 [15.151, N-(5-chloro-2-isopropylbenzyl)-N-cyclopropyl-3-(difluoromethyl)-5-fluoro-1-methyl-1H-pyrazole-4-carboxamide]",Efficacy in % found,"[8]; Table A1, 0.25 ppm a.i.",39%
same,Efficacy in % found,[9]; 20 ppm a.i.,0%
same,Efficacy in % found,[3]; 20 ppm a.i.,88%
propineb [5.29],Efficacy in % found,"[8]; Table A2, 20 ppm a.i.",12%
same,Efficacy in % found,[1]; 400 ppm a.i.,33%
same,Efficacy in % found,[6]; 400 ppm a.i.,30%
same,Efficacy in % found,[7]; 10 ppm a.i.,29%
same,Efficacy in % found,"[4]; Table H2, 20 ppm a.i.",56%
same,Efficacy in % found,[5]; 5 ppm a.i.,14%
